# In ChEMBL document CHEMBL2046268 (Eur J Med Chem, 2012):
# Experiments:
# HeLa [1] = test: Cytotoxicity against human HeLa cells assessed as cell viability after 48 hrs by MTT assay; assay type: functional, cell-based
# A549 [2] = test: Cytotoxicity against human A549 cells assessed as cell viability after 48 hrs by MTT assay; assay type: functional, cell-based; conditions: A549, 48 h
# HeLa [3] = test: Cytotoxicity against human HeLa cells assessed as cell viability after 72 hrs by MTT assay; assay type: functional, cell-based
# A549 [4] = test: Cytotoxicity against human A549 cells assessed as cell viability after 72 hrs by MTT assay; assay type: functional, cell-based; conditions: A549, 72 h
# MCF7 [5] = test: Cytotoxicity against human MCF7 cells assessed as cell viability after 48 hrs by MTT assay; assay type: functional, cell-based; conditions: MCF7, 48 h
# MCF7 [6] = test: Cytotoxicity against human MCF7 cells assessed as cell viability after 72 hrs by MTT assay; assay type: functional, cell-based; conditions: MCF7, 72 h
# Vero [7] = test: Cytotoxicity against african green monkey Vero cells assessed as cell viability after 48 hrs by MTT assay; assay type: cell-based; conditions: Chlorocebus sabaeus
# Vero [8] = test: Cytotoxicity against african green monkey Vero cells assessed as cell viability after 72 hrs by MTT assay; assay type: cell-based; conditions: Chlorocebus sabaeus
# Vero [9] = test: Selectivity index, ratio of IC50 for african green monkey Vero cells to IC50 for human MCF7 cells after 48 hrs
Compound,IC50 (HeLa [1]) [µM],IC50 (A549 [2]) [µM],IC50 (HeLa [3]) [µM],IC50 (A549 [4]) [µM],IC50 (MCF7 [5]) [µM],IC50 (MCF7 [6]) [µM],IC50 (Vero [7]) [µM],IC50 (Vero [8]) [µM],Ratio IC50 (Vero [9])
CC1=C(CO)C(=O)O[C@@H]([C@@H](C)[C@H]2CC[C@H]3[C@@H]4C[C@H]5O[C@]56[C@@H](O)CCC(=O)[C@]6(C)[C@H]4CC[C@]23C)C1,28.9,33.5,19.3,17.2,14.4,5.4,15.5,9,1.1
CC1=C(C)C(=O)O[C@@H]([C@@H](C)C2=CC[C@H]3[C@@H]4C[C@H]5O[C@]56[C@@H](O)C=CC(=O)[C@]6(C)[C@H]4CC[C@]23C)C1,21.5,40,8,5.5,12.6,2.2,4.7,3.1,<1
CC(=O)OCC1=C(C)C[C@H]([C@@H](C)[C@H]2CC[C@H]3[C@@H]4C[C@H]5O[C@]56[C@@H](O)[C@@H](O)CC(=O)[C@]6(C)[C@H]4CC[C@]23C)OC1=O,8.9,18.4,8.3,21.3,9.2,7.1,8.6,4.9,<1
CC1=C(CO)C(=O)O[C@@H]([C@@H](C)[C@H]2CC[C@H]3[C@@H]4C[C@H]5O[C@]56C(=O)C=CC(=O)[C@]6(C)[C@H]4CC[C@]23C)C1,18.4,25.4,15.2,12.8,3.2,2.1,7.7,1.5,2.4
CC1=C(CO)C(=O)O[C@@H]([C@@H](C)[C@H]2CC[C@H]3[C@@H]4C[C@@H](O)[C@]5(C=O)CCC(=O)[C@]5(C)[C@H]4CC[C@]23C)C1,> 40,> 40,> 40,> 40,> 40,> 40,> 40,> 40,
Sc1ncnc2nc[nH]c12 [MERCAPTOPURINE ANHYDROUS],,,,,,,,,48.3
CC1=C(C)C(=O)O[C@@H]([C@@H](C)[C@H]2CC[C@H]3[C@@H]4C[C@@H](O)[C@]5(C=O)CCC(=O)[C@]5(C)[C@H]4CC[C@]23C)C1,> 40,> 40,> 40,> 40,> 40,> 40,> 40,> 40,
CC1=C(CO)C(=O)O[C@@H]([C@@H](C)[C@@]2(O)CC[C@H]3[C@@H]4C[C@H]5O[C@]56[C@@H](O)C=CC(=O)[C@]6(C)[C@H]4CC[C@@]32C)C1,17.7,> 40,19.8,31.7,16.3,10.3,28.8,21.8,1.8
CC(=O)OCC1=C(C)C[C@H]([C@@H](C)[C@H]2CC[C@H]3[C@@H]4C[C@H]5O[C@]56[C@@H](O)C=CC(=O)[C@]6(C)[C@H]4CC[C@]23C)OC1=O,7.7,6.7,4.7,4.4,5.3,2,11.4,8.5,2.2
CC1=C(CO)C(=O)O[C@@H]([C@@H](C)[C@H]2CC[C@H]3[C@@H]4C[C@H](Cl)[C@]5(O)[C@@H](O)C=CC(=O)[C@]5(C)[C@H]4CC[C@]23C)C1,13.4,14.7,12.1,8.6,7.5,1.3,14.8,7.8,2
CC1=C(COC(C)(C)OC=O)C(=O)O[C@@H]([C@@H](C)[C@H]2CC[C@H]3[C@@H]4C[C@H]5O[C@]56[C@@H](O)C=CC(=O)[C@]6(C)[C@H]4CC[C@]23C)C1,> 40,> 40,37.3,> 40,26.9,18.3,27.8,18.5,1
CC1=C(CO)C(=O)O[C@@H]([C@@H](C)[C@H]2CC[C@H]3[C@@H]4C[C@@H](O)[C@]5(C=O)C=CC(=O)[C@]5(C)[C@H]4CC[C@]23C)C1,> 40,> 40,> 40,> 40,> 40,> 40,> 40,> 40,
CC1=C(CO)C(=O)O[C@@H](/C(C)=C2\[C@@H](O)C[C@H]3[C@@H]4C[C@H]5O[C@]56[C@@H](O)C=CC(=O)[C@]6(C)[C@H]4CC[C@]23C)C1,40,> 40,31.1,> 40,27.7,6,> 40,> 40,<1
CC1=C(CO)C(=O)O[C@@H]([C@@H](C)[C@H]2CC[C@H]3[C@@H]4C[C@@H](O)[C@@]5(O)[C@@H](O)[C@@H](O)CC(=O)[C@]5(C)[C@H]4CC[C@]23C)C1,> 40,> 40,> 40,> 40,> 40,> 40,> 40,> 40,
CC1=C(CO)C(=O)O[C@@H]([C@@H](C)[C@H]2CC[C@H]3[C@@H]4C[C@H](O)[C@]5(O)[C@@H](O)C=CC(=O)[C@]5(C)[C@H]4CC[C@]23C)C1,> 40,> 40,31.4,36.4,38.4,36.2,40,26.9,1
